Laboratory results from US8143393B2, “Substituted 4-amino-pyrrolotriazine derivatives useful for treating hyper-proliferative disorders and diseases associated with angiogenesis” (Bayer HealthCare LLC, priority 2005, dated 2012).

Each molecule was assayed against T1, FGFR-1 (Homo sapiens, UniProt P11362) (assay: FGFR-1 TR-FRET biochemical assay). Conditions: 0.6 uM ATP, 5 nM FGFR1-GST; bounds given in nM.
T1 construct: GST; made in house
T1 sequence (P11362 22-822): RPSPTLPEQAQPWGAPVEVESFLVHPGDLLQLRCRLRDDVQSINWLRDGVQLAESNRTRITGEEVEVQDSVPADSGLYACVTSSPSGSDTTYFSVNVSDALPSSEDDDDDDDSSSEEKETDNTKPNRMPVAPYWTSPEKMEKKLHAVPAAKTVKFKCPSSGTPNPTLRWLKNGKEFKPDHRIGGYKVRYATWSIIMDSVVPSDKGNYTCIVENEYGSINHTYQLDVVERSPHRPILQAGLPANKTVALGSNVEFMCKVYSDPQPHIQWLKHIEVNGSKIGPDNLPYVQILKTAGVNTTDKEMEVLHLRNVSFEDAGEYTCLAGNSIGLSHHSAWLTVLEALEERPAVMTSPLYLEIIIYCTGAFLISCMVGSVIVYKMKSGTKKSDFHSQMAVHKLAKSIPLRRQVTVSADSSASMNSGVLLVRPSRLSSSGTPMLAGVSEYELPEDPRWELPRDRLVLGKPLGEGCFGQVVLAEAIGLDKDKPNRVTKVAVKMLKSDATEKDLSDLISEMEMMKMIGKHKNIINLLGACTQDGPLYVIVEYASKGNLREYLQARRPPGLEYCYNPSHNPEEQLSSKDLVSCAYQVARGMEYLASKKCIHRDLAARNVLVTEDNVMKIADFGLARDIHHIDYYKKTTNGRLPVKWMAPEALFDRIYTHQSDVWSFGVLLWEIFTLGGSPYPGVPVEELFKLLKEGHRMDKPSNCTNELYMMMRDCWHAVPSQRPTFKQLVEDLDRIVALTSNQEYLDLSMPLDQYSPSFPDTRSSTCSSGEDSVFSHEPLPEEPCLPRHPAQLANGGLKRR
Description: FGFR-1TR-FRET Biochemical Assay
The FGFR-1 Assay was performed on half well 96-well opaque plates (Costar 3915) in a LANCE format. LANCE is a homogenous time resolved fluormetry based application available through Perkin Elmer. For this assay, 50 uL reactions were set up using: 0.6 uM ATP (Sigma), 25 nM poly GT-biotin (CIS BIO International), 2 nM Eu-labelled phospho-Tyr Ab (PY20 PerkinElmer), 10 nM Streptavidin-APC (Perkin Elmer), 5 nM FGFR1-GST (generated by DRT, Bayer Healthcare), 1% DMSO, 50 mM HEPES pH 7.5, 10 mM MgCl2, 0.1 mM EDTA, 0.015% Brij, 0.1 mg/ml BSA, 0.1% B-mercaptoethanol. All reactions were initiated with the addition of enzyme and were left to incubate for one hour at room temperature. Time-resolved fluorescence was then read on a Perkin Elmer VictorV Multilabel counter. The reading protocol uses an excitation wavelength at 340 nm and emission reads at both 615 and 665 nm. Signal was calculated as a ratio: (Flourescence at 665 nm/Flourescence at 615 nM)*10000 for each well. The background control used for this assay is the signal produced with all assay components excluding ATP. For IC50 generation, compounds were added prior to the enzyme initiation. A 50-fold stock plate was made with compounds serially diluted 1:5 in a 50% DMSO/50% dH2O solution. A 1 μL addition of the stock to the assay wells gave final compound concentrations ranging from 10 μM-0.128 nM in 1% DMSO. The data were expressed as percent inhibition: % inhibition=100−((Signal with inhibitor−background)/(Signal without inhibitor−background))*100.
Molecule Nc1ncnn2c(C3CCN(C(=O)CN4CCOCC4)CC3)cc(-c3ccc(NC(=O)Nc4cc(C(F)(F)F)ccc4F)c(Cl)c3)c12 [Example 231, N-(4-{4-amino-7-[1-(morpholin-4-ylacetyl)piperidin-4-yl]pyrrolo[2,1-f][1,2,4]triazin-3-yl}-2-chlorophenyl)-N′-[2-fluoro-5-(trifluoromethyl)phenyl]urea] has an IC50 of 10 to 100 nM. For Nc1ncnn2c(CN3CCOCC3)cc(-c3ccc(NC(=O)Nc4ccc(F)c(C(F)(F)F)c4)nc3)c12 [Example 18, N-{5-[4-amino-7-(morpholin-4-ylmethyl)pyrrolo[2,1-f][1,2,4]triazin-5-yl]pyridin-2-yl}-N′-[4-fluoro-3-(trifluoromethyl)phenyl]urea], the IC50 was < 10 nM. Molecule COc1cc(NC(=O)Nc2cc(C(F)(F)F)ccn2)ccc1-c1cc(CN2CCOCC2)n2ncnc(N)c12 [Example 38, N-{4-[4-amino-7-(morpholin-4-ylmethyl)pyrrolo[2,1-f][1,2,4]triazin-5-yl]-3-methoxyphenyl}-N′-[4-(trifluoromethyl)pyridin-2-yl]urea] has an IC50 of 10 to 100 nM. In the case of COc1cc(NC(=O)Nc2cc(C(F)(F)F)ccc2F)ccc1-c1cc(CN2CCOCC2)n2ncnc(N)c12 [Example 37, N-{4-[4-amino-7-(morpholin-4-ylmethyl)pyrrolo[2,1-f][1,2,4]-triazin-5-yl]-3-methoxyphenyl}-N′-[2-fluoro-5-(trifluoromethyl)phenyl]urea], the IC50 is reported as 10 to 100 nM. In the case of Nc1ncnn2c(CN3CCOCC3)cc(-c3ccc(NC(=O)Nc4ccc(F)cn4)cc3)c12 [Example 55, N-{4-[4-amino-7-(morpholin-4-ylmethyl)pyrrolo[2,1-f][1,2,4]-triazin-5-yl]phenyl}-N′-(5-fluoropyridin-2-yl)urea], the IC50 is reported as > 100 nM. In the case of CC(=O)c1cc(-c2ccc(NC(=O)Nc3cc(C(F)(F)F)ccc3F)cc2)c2c(N)ncnn12 [Example 100, N-[4-(7-acetyl-4-aminopyrrolo[2,1-f][1,2,4]triazin-5-yl)phenyl]-N′-[2-fluoro-5-(trifluoromethyl)phenyl]urea], the IC50 is reported as 10 to 100 nM. With CC(C)(C)c1cc(NC(=O)Nc2ccc(-c3cc(CN4CCOCC4)n4ncnc(N)c34)cc2)on1 [Example 2, N-{4-[4-amino-7-(morpholin-4-ylmethyl)pyrrolo[2,1-f][1,2,4]triazin-5-yl]phenyl}-N′-(3-tert-butylisoxazol-5-yl)urea] the IC50 was < 10 nM. Cc1cc(-c2cc(CN3CCOCC3)n3ncnc(N)c23)ccc1NC(=O)Nc1cc(C(F)(F)F)ccn1 [Example 26, N-{4-[4-amino-7-(morpholin-4-ylmethyl)pyrrolo[2,1-f][1,2,4]triazin-5-yl]-2-methylphenyl}-N′-[4-(trifluoromethyl)pyridin-2-yl]urea] was tested, and the IC50 was < 10 nM. With CN(C)CCCc1cc(-c2ccc(NC(=O)Nc3cc(C(F)(F)F)ccc3F)c(F)c2)c2c(N)ncnn12 [Example 194, N-(4-{4-amino-7-[3-(dimethylamino)propyl]pyrrolo[2,1-f][1,2,4]triazin-5-yl}-2-fluorophenyl)-N′-[2-fluoro-5-(trifluoromethyl)phenyl]urea] the IC50 was < 10 nM. For Nc1ncnn2c(CN3CCOCC3)cc(-c3ccc(NC(=O)Nc4cccc(Br)c4)c(F)c3)c12 [Example 67, N-4-[4-amino-7-(morpholin-4-ylmethyl)pyrrolo[2,1-f][1,2,4]triazin-5-yl]-2-fluorophenyl-N′-(3-bromophenyl)urea], the IC50 was < 10 nM. With Nc1ncnn2c(CN3CCOCC3)cc(-c3ccc(NC(=O)Nc4cc(C(F)(F)F)cc[n+]4[O-])c(F)c3)c12 [Example 287, N-{4-[4-amino-7-(morpholin-4-ylmethyl)pyrrolo[2,1-f][1,2,4]triazin-5-yl]-2-fluorophenyl}-N′-[1-oxido-4-(trifluoromethyl)pyridin-2-yl]urea] the IC50 was < 10 nM. In the case of Cc1cc(NC(=O)Nc2cc(C(F)(F)F)ccc2Cl)c(F)cc1-c1cc(CN2CCOCC2)n2ncnc(N)c12 [Example 147, N-{4-[4-amino-7-(morpholin-4-ylmethyl)pyrrolo[2,1-f][1,2,4]triazin-5-yl]-2-fluoro-5-methylphenyl}-N′-[2-chloro-5-(trifluoromethyl)phenyl]urea], the IC50 is reported as > 100 nM. Nc1ncnn2c(CN3CCS(=O)(=O)CC3)cc(-c3ccc(NC(=O)Nc4cc(C(F)(F)F)ccn4)c(F)c3)c12 [Example 78, N-(4-{4-amino-7-[(1,1-dioxidothiomorpholin-4-yl)methyl]pyrrolo[2,1-f][1,2,4]triazin-5-yl}-2-fluorophenyl)-N′-[4-(trifluoromethyl)pyridin-2-yl]urea] was tested, and the IC50 was < 10 nM. For Nc1ncnn2c(C3CCN(CC(=O)O)CC3)cc(-c3ccc(NC(=O)Nc4cc(C(F)(F)F)ccc4F)c(F)c3)c12 [Example 119, [4-(4-amino-5-3-fluoro-4-[([2-fluoro-5-(trifluoromethyl)-phenyl]aminocarbonyl)amino]phenylpyrrolo[2,1-f][1,2,4]triazin-7-yl)piperidin-1-yl]acetic acid], the IC50 was < 10 nM. In the case of Nc1ncnn2c(CN3CCN(S(=O)(=O)CC(F)(F)F)CC3)cc(-c3ccc(NC(=O)Nc4cc(C(F)(F)F)ccc4F)cc3)c12 [Example 86, N-{4-[4-amino-7-({4-[(2,2,2-trifluoroethyl)sulfonyl]piperazin-1-yl}methyl)pyrrolo[2,1-f][1,2,4]triazin-5-yl]phenyl}-N′-[2-fluoro-5-(trifluoromethyl)phenyl]urea], the IC50 is reported as 10 to 100 nM. COC[C@H]1CCCN1C(=O)c1cc(-c2ccc(NC(=O)Nc3cc(C(F)(F)F)ccc3F)c(F)c2)c2c(N)ncnn12 [Example 284, N-[4-(4-amino-7-{[2-(methoxymethyl)pyrrolidin-1-yl]carbonyl}pyrrolo[2,1-f][1,2,4]triazin-5-yl)-2-fluorophenyl]-N′-[2-fluoro-5-(trifluoromethyl)phenyl]urea] gave an IC50 of 10 to 100 nM. Nc1ncnn2c(C3CCN(C(=O)C4CC4)CC3)cc(-c3ccc(NC(=O)Nc4cc(C(F)(F)F)ccc4F)c(Cl)c3)c12 [Example 230, N-(4-{4-amino-7-[1-(cyclopropylcarbonyl)piperidin-4-yl]pyrrolo[2,1-f][1,2,4]triazin-5-yl}-2-chlorophenyl)-N′-[2-fluoro-5-(trifluoromethyl)phenyl]urea] gave an IC50 of 10 to 100 nM. CC(C)(C)c1ccnc(NC(=O)Nc2ccc(-c3cc(CCN4CCOCC4)n4ncnc(N)c34)cc2F)c1 [Example 228, N-{4-[4-amino-7-(2-morpholin-4-ylethyl)pyrrolo[2,1-f][1,2,4]triazin-5-yl]-2-fluorophenyl}-N′-(4-tert-butylpyridin-2-yl)urea] was tested, and the IC50 was < 10 nM. For CN1CCC(c2cc(-c3ccc(NC(=O)Nc4cc(C(F)(F)F)ccc4F)c(F)c3)c3c(N)ncnn23)CC1 [Example 113, N-4-[4-amino-7-(1-methylpiperidin-4-yl)pyrrolo[2,1-f][1,2,4]triazin-5-yl]-2-fluorophenyl-N′-[2-fluoro-5-(trifluoromethyl)phenyl]urea], the IC50 was < 10 nM. Nc1ncnn2c(CCN3CCOCC3)cc(-c3ccc(NC(=O)Nc4cc(C(F)(F)F)ccc4F)c(F)c3)c12 [Example 212, N-{4-[4-amino-7-(2-morpholin-4-ylethyl)pyrrolo[2,1-f][1,2,4]triazin-5-yl]-2-fluorophenyl}-N′-[2-fluoro-5-(trifluoromethyl)phenyl]urea] was tested, and the IC50 was 10 to 100 nM.

Same assay, conditions: upper bound of the bin 'greater than 100 nM but less than 1 μM' (lower bound in E1)
In the case of Nc1ncnn2c(CN3CCOCC3)cc(-c3ccc(NC(=O)Nc4ccc(F)cn4)cc3)c12 [Example 55, N-{4-[4-amino-7-(morpholin-4-ylmethyl)pyrrolo[2,1-f][1,2,4]-triazin-5-yl]phenyl}-N′-(5-fluoropyridin-2-yl)urea], the IC50 is reported as < 1000 nM. With Cc1cc(NC(=O)Nc2cc(C(F)(F)F)ccc2Cl)c(F)cc1-c1cc(CN2CCOCC2)n2ncnc(N)c12 [Example 147, N-{4-[4-amino-7-(morpholin-4-ylmethyl)pyrrolo[2,1-f][1,2,4]triazin-5-yl]-2-fluoro-5-methylphenyl}-N′-[2-chloro-5-(trifluoromethyl)phenyl]urea] the IC50 was < 1000 nM.
